3 molecules from US20240009265A1, “METHODS OF TREATMENT COMPRISING STABLE REDUCED GLUTATHIONE” (Blue Sky Innovation, LLC, priority 2020, published 2024) can be followed below.

For data set [1], the system named is subject diagnosed with tardive dyskinesia (TD). Here is the method: Reduced glutathione was administered to the subject 5 times per day in a solution in the amount of about 18.25 mg per spray or about 91.25 mg per administration. The subject cleaned the area of application with a disinfectant wipe before topical application of the reduced glutathione. The topical rGSH was administered in 5 sprays of rGSH for a total dosage of about 91.25 mg. The administered rGSH dried for about 30 seconds before the subject was re-clothed. The facial movements and body movements of the subject were filmed once per week to analyze progression or loss of TD symptoms.
Topical rGSH was prescribed for 5 applications of 5 sprays each day to: (a) their right arm, (b) right jaw and masseter area, and (c) their spine. The total amount of administered rGSH was a total of 25 squirts per day (which is approximately 456 mg of rGSH via a Glutathione supplement) as applied by the nursing staff.

Data set [2] has as its system fibromyalgia syndrome (FMS) subjects. Particulars: 43 subjects; rGSH with low copper diet and support product. From the text: 43 fibromyalgia subjects underwent dietary changes supplements including: (a) a low copper diet, (b) a support product containing molybdenum, boron, zinc chelate, pyridoxine, N-Acetyl L-Cysteine, L-serine and L-glutamine, and (c) rGSH.
For data set [3], the system named is subject with partial and full thickness burn lesions. Here is the method:
The subject was treated with topical applications of rGSH. The subject was administered the rGSH 5-8 times a day over a 3-month period.
A subject had accidentally burned themself on an outdoor grill. The subject was treated with rGSH at 5-8 times a day with topical application. The subject was also treated with Cephalexin 500 mg in case of infection.

Data set [4] has as its system subjects with chronic shingles and post-herpetic neuralgia (PHN). Kind of data set: Topical reduced glutathione in a liposomal carrier in chronic shingles / post-herpetic neuralgia. The format is in vivo, human. An excerpt: Most the subjects at the time of the first visit reported significant depression and suicidal thoughts. Most subjects also reported giving up hope. […] The self-rated pain averaged a 7, but many subjects reported that when a break-out was occurring, the pain could spike to a 10. Videos and pictures were taken where and when appropriate with proper releases documented.

The subject of data set [5] is subjects with chemotherapy-induced peripheral neuropathy (CIPN). Here is the method: Subjects were treated with topical and oral rGSH in a natural liposomal carrier after initial consultation. Subjects began treatment prior to their second visit. Follow-up consultations with subjects occurred weekly to monthly according to symptoms and needs.
Procedures for measuring CIPN were based on interviews performed by a medical professional with subjects. The physician measured nerve sensitivity in some of the subjects using in-office medical instruments.

Data set [6] concerns subject with diabetic peripheral neuropathy (DN). Kind of data set: Topical and oral rGSH in diabetic peripheral neuropathy (case study). Particulars: for outcome of diabetic neuropathy: person, 13 weeks of therapy.
Where [7] appears, read: after 35 days of rGSH treatment.

SMILES strings stand for the structures. Read-outs that look alike come from different tables or passages of the source.

Turning to `N[C@@H](CCC(=O)N[C@@H](CS)C(=O)NCC(=O)O)C(=O)O` [rGSH, reduced glutathione], in data set [1] (after 10 weeks of treatment), the “outcome of TD” value is “resolved completely”. Further, the “interval between involuntary jaw movements (masseter muscles)” value in data set [1] (after 21 days of topical rGSH, about 456 mg/day, before treatment about every 1-2 seconds) was in the range of 4 to 5 s. Also, the “interval between involuntary arm movements” value in data set [1] (after 21 days of topical rGSH, before treatment about every 1-2 seconds) lay in the range of 4 to 5 s. Moreover, the ambulation entry in data set [1] (after 42 days) is “no longer used assistance for walking up and down stairs”. Besides, in data set [1] (after 42 days of topical rGSH), the “interval between facial and arm movements” value was around 10 s. The “pain in shoulder, back and jaw” value in data set [1] (after 42 days, compared with the 21 day period) is on record as “substantially decreased”. In data set [1] (after 70 days), the “involuntary facial or arm movement” value was “no longer had involuntary facial or arm movement”. In data set [1] (after 70 days), the pain entry is “substantially free of pain”. Further, in data set [1] (after 70 days of rGSH administration), the TD symptoms entry is on record as “substantially free of symptoms”. Also, the FMS symptoms entry in data set [2] is “substantial resolution”. Also, in data set [2], the “pain in fibromyalgia subjects” value is on record as “substantially reduced pain”. In addition, the burn pain entry in data set [3] (10 weeks after the burn) is “no longer had any pain”; in data set [3] (after 21 days of rGSH treatment) it was “tolerable”. In data set [3] (setting [7]), the “infection of the burn” value was “No infection had occurred”. In addition, the “state of the wound” value in data set [3] (setting [7]) is “dead skin and eschar were gone and new skin has started to epithelialize”; in data set [3] (after 49 days of treatment), “nearly healed”. In addition, in data set [3] (day of the burn), the “burn pain within an hour of application” value is “nearly dissipated”. Further, in data set [3] (day of the burn), the “time until pain was subsiding after topical application” value is at most 30 min. Moreover, in data set [3] (topical rGSH 5-8 times per day over a 3-month period), the “course of burn healing” value was “Healing commenced immediately with minimal pain, minimal scarring, no infection, and minimal drainage”. Moreover, the “time to nearly complete resolution of symptoms” value in data set [4] (one subject with shingles and PHN for about nine years) is at most 34 min. Also, the “share of subjects with nearly complete resolution only over a more extended period” value in data set [4] (over a hundred patients and volunteers with shingles) was “Less than 5%”. The “extended period to nearly complete resolution” value in data set [4] (the subjects with slower response) lay within 2 to 5 days. In data set [5] (Patient 5-C), the “time to major resolution of symptoms” value is listed as at most 3 days. In data set [5] (Patient 5-C, Day 63), the “pain in the feet” value was “no longer felt pain in the feet”. Also, the CIPN symptoms result is “substantial decrease in symptoms” in data set [5] (Patient 5-D, Day 31) and “improved symptoms” in data set [5] (Subject 5-B, Day 7). For the same molecule, the “feeling better since starting treatment” value in data set [5] (Patient 5-D, Day 38) was “about 70%”. In data set [5] (Patient 5-D, Day 52), this molecule gave a decrease in symptoms of 80%. Besides, the “CIPN symptoms resolved, as reported by the subject” value in data set [5] (Subject 5-A, Day 12, only took rGSH orally) is “about 40%”. In addition, the “improvement of symptoms since using rGSH” value in data set [5] (Subject 5-B, Day 42) worked out at 50%. In addition, the “resolution of CIPN symptoms” value in data set [5] (Subject 5-B, Day 84) is 70%; in data set [5] (Subject 5-B, Day 112), 70%; in data set [5] (Subject 5-B, Day 245, rGSH stopped for a few months), 70%. The “renal or liver functions” value in data set [6] (after 13 weeks of therapy) was “No effect”. The same molecule had an HBA1C in data set [6] (after 13 weeks of therapy, 10.0% before) of 10.1%. In addition, the “neuropathy in the hands” value in data set [6] (oral and topical rGSH, weekly examination) is reported as “complete resolution in their hands in the first few weeks”. The “outcome of diabetic neuropathy” value is recorded as “resolved substantially” in data set [6] and “resolved” in data set [6] (listed as stable rGSH). Further, the “diabetic neuropathy in seven other subjects” value in data set [6] (seven other subjects treated with stable rGSH) is given as “complete resolution”.
`Nc1nc2c(ncn2COCCO)c(=O)[nH]1` [acyclovir, reference compound]: the “effect of earlier chronic medication on shingles/PHN pain” value in data set [4] (chronic doses before rGSH treatment) is given as “without substantial ameliorative effect”.
In the case of `C[C@]12CC[C@H]3[C@@H](CCC4=CC(=O)CC[C@@]43C)[C@@H]1CC[C@@H]2O` [injectable testosterone, testosterone, reference compound], in data set [6] (modest dose, before rGSH treatment), the “effect on the subject's issues (insulin sensitivity, muscle strength, neuropathy)” value was “did not have a substantial effect”.
